These are literature values, as cited in patent US20150017242A1 (Lupin Limited, priority 2012, published 2015).

Where two headings read alike, the source gives them in different places.

Assay in series [1]: not given
This is another data set of the same source.

As to `CCCCc1oc2ccc(NS(C)(=O)=O)cc2c1C(=O)c1ccc(OCCCN(CCCC)CCCC)cc1.Cl` [Dronedarone, N-{2-butyl-3-[4-(3-dibutylaminopropoxy)benzoyl]benzofuran-5-yl}methane sulfonamide, hydrochloride], the absolute oral bioavailability entry (administered with a high fat meal) is given as “approx. 15%” and the absolute oral bioavailability (fasting) was 4%. Also, the “behaviour at higher pH condition” value in series [1] is listed as “precipitates out”.
